Read-outs that look alike come from different tables or passages of the source. Oligonucleotides are written 5' to 3', each unit as a sugar letter and its base; * is a phosphorothioate linkage, no mark a phosphodiester; rarer units and linkages stand in square brackets, end groups in braces. Plain capitals give the bases only. {P} = phosphorylation (indicated by P); d = 2'-deoxy (DNA); m = 2'-O-methyl; r = 2'-OH (RNA); f = 2'-fluoro
Experiments:
[1] = tested on: VEGFR2; assay: EC50 of VEGFR2 siRNA candidates before and after modification, knockdown in cells; format: cell-based, human; conditions: for EC50: 24 h, 24well; for knockdown effect of the modified sequence compared with unmodified: PANC-1 and MDA-MB-231 cells
Description: MDA-MB-231 and U87 cells were seeded in 24-well cell plates (1 × 10^5/well), and then siRNAs (21mer or 25mer or negative control) were transfected with commercial transfection reagent (lipo2000), and the siRNA transfection concentration was 100 nM. Meanwhile, untreated cells were set as blank control. Total RNA was extracted from cells 24 h after transfection. Reverse transcription was performed using the kit to obtain cDNA according to the manufacturer’s instructions. Relative levels of target gene VEGFR2 mRNA expression were determined by real-time PCR, normalized to the housekeeping gene β-actin. Gene knockdown effectiveness was expressed as a percentage of the blank control. […] VEGFR2-21-h1#, VEGFR2-21-h2#, VEGFR2-21-h5#, VEGFR2-21-h7#, VEGFR2-21-hm17#, VEGFR2-21-hm18#, VEGFR2-25-h3#, and VEGFR2- 25-h4# were selected and modified as indicated in Table 3 (SEQ ID Nos. 109-124).
The EC50 of candidate sequences before and after modification in different cells (MDA-MB-231, U87-MG and PANC-1) were compared. MDA-MB-231, PANC-1 and U87-MG cells were seeded in 24-well cell plates (1 × 10^5/well), and siRNA candidates (modified or unmodified) were transfected with multiple concentration gradients in different cells. Use the same procedure as the primary screen. Finally, the data were plotted using the software GraphPad Prism8 and EC50 values were calculated.

[2] = tested on: TGF-β1; assay: EC50 of TGF-β1 siRNA candidates before and after modification, knockdown in cells; format: cell-based, human; conditions: SK-Hep 1 cells, homo, 24h, 24well (second TGF-β1 table); read-out: EC50 (24h, nM, 24well) SK-Hep 1
Description: DLD-1, RKO, U87-MG and PANC-1 cells were seeded into 24-well cell plates (1 × 10^5/well), and then siRNAs (21mer or negative control) were transfected with commercial transfection reagent (lipo2000). The siRNA transfection concentration was 100 nM. Untreated cells were set as a blank control. Total RNA was extracted from cells 24 h after transfection. Reverse transcription was performed using the kit to obtain cDNA according to the manufacturer’s instructions. Relative levels of target gene TGF- β1 mRNA expression were determined by real-time PCR, normalized to the housekeeping gene β-actin. Gene knockdown effectiveness was expressed as a percentage of the blank control. […] Therefore, TF1-21-hm3# and TF1-21-hm6# were selected as candidate sequences, and these two sequences were modified (see Table 4 for modified sequences).
The EC50 of candidate sequences before and after modification in different cells (U87-MG, DLD-1, SK-Hep-1, BxPC3, A549, HUCCT, PANC-1 and RKO) were compared. U87-MG, DLD-1, SK-Hep-1, BxPC3, A549, HUCCT, PANC-1 and RKO cells were seeded in 24-well cell plates (1 × 10^5/well) and transfected with multiple concentration gradients in different cells for siRNA candidates (modified or unmodified), use the same procedure as for primary screening. Finally, the data were plotted using the software GraphPad Prism8 and EC50 values were calculated.

[3] = MD-MB-231 cells, read-out: EC50 (nM, 24 h, 24well) Breast cancer MD-MB-231
[4] = PANC-1 cells, read-out: EC50 (nM, 24 h, 24well) Pancreatic cancer PANC-1
[5] = U87-MG cells, read-out: EC50 (nM, 24 h, 24well) Brain cancer U87-MG

Substance | EC50 [1, 3] | EC50 [1, 4] | EC50 [1, 5] | EC50 [2] | knockdown effect of the modified sequence compared with unmodified [1]
VEGFR2-21-h1#mod: Modified (2′F, 2′OME, phosphorylation) siRNA targeting VEGFR2; sense SEQ ID 131, antisense SEQ ID 139 (sense mGmCmCmUmAmGfUfGfUmUmUmCmUmCmUmUmGmAmUdTdT; antisense {P}-mAfUmCmAmAmGmAmGmAmAmAmCmAfCmUmAmGmGmCdTdT) | 0.23 nM | 0.07 nM | 0.99 nM |  | 
VEGFR2-25-h 4#mod: Modified (2′F, 2′OME, phosphorylation) siRNA targeting VEGFR2; sense SEQ ID 134, antisense SEQ ID 142 (sense mCmCmCmUmUmGmAmGmUmCmCmAfAfUfCmAmCmAmCmAmAmUmUmAmA; antisense {P}-mUfUmAmAmUmUmGmUmGmUmGmAmUfUmGmGmAmCmUmCmAmAmGmGmG) | 0.21 nM | 0.35 nM | 34.6 nM |  | 
TF1-20190711-5#: siRNA targeting TGF-β1 mRNA; sense SEQ ID 9, antisense SEQ ID 10 (sense GAGUACACACAGCAUAUAUTT; antisense AUAUAUGCUGUGUGUACUCTT; sugars from the 5' end r19 d2, backbone not given here) |  |  |  | 9.8 nM | 
VEGFR2-25-h3#mod: Modified (2′F, 2′OME, phosphorylation) siRNA targeting VEGFR2; sense SEQ ID 133, antisense SEQ ID 141 (sense mGmAmCmCmAmAmCmAmUmGmGmAfGfUfCmGmUmGmUmAmCmAmUmUmA; antisense {P}-mUfAmAmUmGmUmAmCmAmCmGmAmCfUmCmCmAmUmGmUmUmGmGmUmC) | 1.65 nM | 1.76 nM | 1090 nM |  | 
VEGFR2-21-hm17#: siRNA targeting VEGFR2 mRNA; sense SEQ ID 76, antisense SEQ ID 119 (sense GGACUGGCUUUGGCCCAAUTT; antisense AUUGGGCCAAAGCCAGUCCTT; sugars from the 5' end r19 d2, backbone not given here) | 1.04 nM | 2.09 nM | 16.6 nM |  | better than that of unmodified
VEGFR2-25-h3#: siRNA targeting VEGFR2 mRNA; sense SEQ ID 43, antisense SEQ ID 86 (sense GACCAACAUGGAGUCGUGUACAUUA; antisense UAAUGUACACGACUCCAUGUUGGUC; RNA, backbone not given here) | 1.8 nM | 0.35 nM | 10.9 nM |  | 
VEGFR2-21-h5#mod: Modified (2′F, 2′OME, phosphorylation) siRNA targeting VEGFR2; sense SEQ ID 137, antisense SEQ ID 145 (sense mGmCmAmUmCmAfGfCfAmUmAmAmGmAmAmAmCmUmUdTdT; antisense {P}-mAfAmGmUmUmUmCmUmUmAmUmGmCfUmGmAmUmGmCdTdT) | 0.01 nM | 0.22 nM | 10.4 nM |  | 
VEGFR2-21-h7#: siRNA targeting VEGFR2 mRNA; sense SEQ ID 66, antisense SEQ ID 109 (sense GCUGACAUGUACGGUCUAUTT; antisense AUAGACCGUACAUGUCAGCTT; sugars from the 5' end r19 d2, backbone not given here) | 1.72 nM | 3 nM | 49.5 nM |  | 
VEGFR2-25-h4#: siRNA targeting VEGFR2 mRNA; sense SEQ ID 44, antisense SEQ ID 87 (sense CCCUUGAGUCCAAUCACACAAUUAA; antisense UUAAUUGUGUGAUUGGACUCAAGGG; RNA, backbone not given here) | 0.38 nM | 0.13 nM | 5.39 nM |  | 
VEGFR2-21-hm17#mod: Modified (2′F, 2′OME, phosphorylation) siRNA targeting VEGFR2; sense SEQ ID 135, antisense SEQ ID 143 (sense mGmGmAmCmUmGfGfCfUmUmUmGmGmCmCmCmAmAmUdTdT; antisense {P}-mAfUmUmGmGmGmCmCmAmAmAmGmCfCmAmGmUmCmCdTdT) | 0.32 nM | 0.25 nM | 312 nM |  | 
VEGFR2-21-h2#mod: Modified (2′F, 2′OME, phosphorylation) siRNA targeting VEGFR2; sense SEQ ID 132, antisense SEQ ID 140 (sense mGmGmUmCmCmAfUfUfUmCmAmAmAmUmCmUmCmAmAdTdT; antisense {P}-mUfUmGmAmGmAmUmUmUmGmAmAmAfUmGmGmAmCmCdTdT) | 0.14 nM | 0.08 nM | 2.42 nM |  | 
VEGFR2-21-h1#: siRNA targeting VEGFR2 mRNA; sense SEQ ID 60, antisense SEQ ID 103 (sense GCCUAGUGUUUCUCUUGAUTT; antisense AUCAAGAGAAACACUAGGCTT; sugars from the 5' end r19 d2, backbone not given here) | 0.2 nM | 0.92 nM | 1.25 nM |  | better than that of unmodified
VEGFR2-21-h2#: siRNA targeting VEGFR2 mRNA; sense SEQ ID 61, antisense SEQ ID 104 (sense GGUCCAUUUCAAAUCUCAATT; antisense UUGAGAUUUGAAAUGGACCTT; sugars from the 5' end r19 d2, backbone not given here) | 0.72 nM | 0.36 nM | 10.7 nM |  | better than that of unmodified
VEGFR2-21-hm18#: siRNA targeting VEGFR2 mRNA; sense SEQ ID 77, antisense SEQ ID 120 (sense GGAAAAAACAAAACUGUAATT; antisense UUACAGUUUUGUUUUUUCCTT; sugars from the 5' end r19 d2, backbone not given here) | 3.26 nM | 3.81 nM | 3.17 nM |  | better than that of unmodified
VEGFR2-21-h7#mod: Modified (2′F, 2′OME, phosphorylation) siRNA targeting VEGFR2; sense SEQ ID 138, antisense SEQ ID 146 (sense mGmCmUmGmAmCfAfUfGmUmAmCmGmGmUmCmUmAmUdTdT; antisense {P}-mAfUmAmGmAmCmCmGmUmAmCmAmUfGmUmCmAmGmCdTdT) | 51.4 nM | 384 nM | 170 nM |  | 
VEGFR2-21-hm18# mod: Modified (2′F, 2′OME, phosphorylation) siRNA targeting VEGFR2; sense SEQ ID 136, antisense SEQ ID 144 (sense mGmGmAmAmAmAfAfAfCmAmAmAmAmCmUmGmUmAmAdTdT; antisense {P}-mUfUmAmCmAmGmUmUmUmUmGmUmUfUmUmUmUmCmCdTdT) | 0.02 nM | 0.06 nM | 1.57 nM |  | 
VEGFR2-21-h5#: siRNA targeting VEGFR2 mRNA; sense SEQ ID 64, antisense SEQ ID 107 (sense GCAUCAGCAUAAGAAACUUTT; antisense AAGUUUCUUAUGCUGAUGCTT; sugars from the 5' end r19 d2, backbone not given here) | 0.4 nM | 0.51 nM | 25.5 nM |  | better than that of unmodified

Source: US20230323358A1, “COMPOSITION AND USE OF siRNAs AGAINST VEGFR2 AND TGF-BETA1 IN COMBINATION THERAPY FOR CANCER” (Sirnaomics, Inc., priority 2021, published 2023)
